# In patent publication US20150087673A1, “METHODS FOR USING AND BIOMARKERS FOR AMPK-ACTIVATING COMPOUNDS” (RIGEL PHARMACEUTICALS, INC., priority 2013, published 2015):
# Tested on: AMPK
# Test: AMPK activation assay (enzyme-linked immunosorbent assay)
# Assay type: cell-based
# Outline: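 Activator screen performed per well-known kit methods.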
row,SMILES,EC50
1,"CC(=O)Nc1ccc(OC2CCN(C(=O)c3ccc(C(=O)NC4CCN(Cc5ccc(F)cc5)CC4)cn3)CC2)cc1 [Compound 406, 6-(4-(4-acetamidophenoxy)piperidine-1-carbonyl)-N-(1-(4-fluorobenzyl)piperidin-4-yl)nicotinamide]",500 to 1000 nM
2,"CC(=O)Nc1cccc(OC2CCN(C(=O)c3ccc(C(=O)NC4CCN(Cc5ccc(C#N)cc5)CC4)cn3)CC2)c1 [Compound 411, 6-(4-(3-acetamidophenoxy)piperidine-1-carbonyl)-N-(1-(4-cyanobenzyl)piperidin-4-yl)nicotinamide]",1000 to 5000 nM
3,"COc1ccc(CN2CCC(NC(=O)c3ccc(C(=O)N4CCC(Oc5cccc(NC(C)=O)c5)CC4)nc3)CC2)cc1 [Compound 412, 6-(4-(3-acetamidophenoxy)piperidine-1-carbonyl)-N-(1-(4-methoxybenzyl)piperidin-4-yl)nicotinamide]",1000 to 5000 nM
4,"CC(=O)Nc1cccc(OC2CCN(C(=O)c3ccc(C(=O)NC4CCN(Cc5ccc(F)cc5)CC4)cn3)CC2)c1 [Compound 413, 6-(4-(3-acetamidophenoxy)piperidine-1-carbonyl)-N-(1-(4-fluorobenzyl)piperidin-4-yl)nicotinamide]",1000 to 5000 nM
5,"CC(=O)Nc1cccc(OC2CCN(C(=O)c3ccc(C(=O)Nc4ccc(Oc5ccc(F)cc5)nc4)cn3)CC2)c1 [Compound 414, 6-(4-(3-acetamidophenoxy)piperidine-1-carbonyl)-N-(6-(4-fluorophenoxy)pyridin-3-yl)nicotinamide]",1000 to 5000 nM
6,"COc1ccc(C(=O)C2CCN(C(=O)c3ncc(C(=O)NC4CCN(Cc5ccc(C#N)cc5)CC4)cc3CCCNC(=O)OC(C)(C)C)CC2)cc1 [Compound 416, tert-butyl 3-(5-(1-(4-cyanobenzyl)piperidin-4-ylcarbamoyl)-2-(4-(4-methoxybenzoyl)piperidine-1-carbonyl)pyridin-3-yl)propylcarbamate]",1000 to 5000 nM
7,"CS(=O)(=O)c1ccc(N2CCC(NC(=O)c3ccc(C(=O)N4CCC(Oc5ccc(C#N)cc5)CC4)nc3)CC2)cc1 [Compound 420, 6-(4-(4-cyanophenoxy)piperidine-1-carbonyl)-N-(1-(4-(methylsulfonyl)phenyl)piperidin-4-yl)nicotinamide]",1000 to 5000 nM
8,"CS(=O)(=O)c1ccc(N2CCC(NC(=O)c3ccc(C(=O)N4CCN(Cc5ccc(F)cc5)CC4)nc3)CC2)cc1 [Compound 421, 6-(4-(4-fluorobenzyl)piperazine-1-carbonyl)-N-(1-(4-(methylsulfonyl)phenyl)piperidin-4-yl)nicotinamide]",1000 to 5000 nM
9,"N#Cc1ccc(OC2CCN(C(=O)c3ccc(C(=O)NC4CCN(c5ccc(F)cc5)CC4)cn3)CC2)cc1 [Compound 422, 6-(4-(4-cyanophenoxy)piperidine-1-carbonyl)-N-(1-(4-fluorophenyl)piperidin-4-yl)nicotinamide]",1000 to 5000 nM
10,"COc1ccc(C(=O)C2CCN(C(=O)c3ccc(C(=O)N[C@@H]4CCN(Cc5csc(C)n5)C[C@@H]4F)cn3)CC2)cc1 [Compound 427, N-((3S,4R)-3-fluoro-1-((2-methylthiazol-4-yl)methyl)piperidin-4-yl)-6-(4-(4-methoxybenzoyl)piperidine-1-carbonyl)nicotinamide]",1000 to 5000 nM
11,"CC(=O)Nc1ccc(OC2CCN(C(=O)c3ccc(C(=O)NC4CCN(Cc5cccc(OC(F)(F)F)c5)CC4)cn3)CC2)cc1 [Compound 428, 6-(4-(4-acetamidophenoxy)piperidine-1-carbonyl)-N-(1-(3-(trifluoromethoxy)benzyl)piperidin-4-yl)nicotinamide]",500 to 1000 nM
12,"CC(=O)Nc1cccc(OC2CCN(C(=O)c3ccc(C(=O)NC4CCN(Cc5cccc(OC(F)(F)F)c5)CC4)cn3)CC2)c1 [Compound 429, 6-(4-(3-acetamidophenoxy)piperidine-1-carbonyl)-N-(1-(3-(trifluoromethoxy)benzyl)piperidin-4-yl)nicotinamide]",500 to 1000 nM
13,"N#Cc1ccc(CN2CCC(NC(=O)c3ccc(C(=O)N4CCC(Oc5cccc(NC(=O)C6CC6)c5)CC4)nc3)CC2)cc1 [Compound 431, N-(1-(4-cyanobenzyl)piperidin-4-yl)-6-(4-(3-(cyclopropanecarboxamido)phenoxy)piperidine-1-carbonyl)nicotinamide]",500 to 1000 nM
14,"O=C(NC1CCN(Cc2ccc(F)cc2)CC1)c1ccc(C(=O)N2CCC(Oc3cccc(NC(=O)C4CC4)c3)CC2)nc1 [Compound 432, 6-(4-(3-(cyclopropanecarboxamido)phenoxy)piperidine-1-carbonyl)-N-(1-(4-fluorobenzyl)piperidin-4-yl)nicotinamide]",500 to 1000 nM

# Other lines, results leading:
row,EC50,SMILES
1,< 500 nM,"COc1ccc(N2CCC(NC(=O)c3ccc(C(=O)N4CCN(Cc5ccc(F)cc5)CC4)nc3)CC2)cc1 [Compound 405, 6-(4-(4-fluorobenzyl)piperazine-1-carbonyl)-N-(1-(4-methoxyphenyl)piperidin-4-yl) nicotinamide]"
2,< 500 nM,"COc1ccc(CN2CCC(NC(=O)c3ccc(C(=O)N4CCC(Oc5ccc(NC(C)=O)cc5)CC4)nc3)CC2)cc1 [Compound 407, 6-(4-(4-acetamidophenoxy)piperidine-1-carbonyl)-N-(1-(4-methoxybenzyl)piperidin-4-yl) nicotinamide]"
3,< 500 nM,"CC(=O)Nc1ccc(OC2CCN(C(=O)c3ccc(C(=O)Nc4ccc(Oc5ccc(F)cc5)nc4)nc3)CC2)cc1 [Compound 408, 5-(4-(4-acetamidophenoxy)piperidine-1-carbonyl)-N-(6-(4-fluorophenoxy)pyridin-3-yl)picolinamide]"
4,< 500 nM,"N#Cc1ccc(CN2CCC(NC(=O)c3ccc(C(=O)N4CCC(Oc5ccc(NC(=O)C6CC6)cc5)CC4)nc3)CC2)cc1 [Compound 409, N-(1-(4-cyanobenzyl)piperidin-4-yl)-6-(4-(4-(cyclopropanecarboxamido)phenoxy)piperidine-1-carbonyl)nicotinamide]"
5,< 500 nM,"N#Cc1ccc(CN2CCC(NC(=O)c3ccc(C(=O)N4CCC(Oc5ccc(SC(F)(F)F)cc5)CC4)cn3)CC2)cc1 [Compound 410, N-(1-(4-cyanobenzyl)piperidin-4-yl)-5-(4-(4-(trifluoromethylthio)phenoxy)piperidine-1-carbonyl)picolinamide]"
6,< 500 nM,"N#Cc1ccc(CN2CCC(NC(=O)c3ccc(C(=O)N4CCC(Oc5ccc(S(=O)(=O)C(F)(F)F)cc5)CC4)cn3)CC2)cc1 [Compound 415, N-(1-(4-cyanobenzyl)piperidin-4-yl)-5-(4-(4-(trifluoromethylsulfonyl)phenoxy)piperidine-1-carbonyl)picolinamide]"
7,< 500 nM,"N#Cc1ccc(N2CCC(NC(=O)c3ccc(C(=O)N4CCN(Cc5ccc(F)cc5)CC4)nc3)CC2)cc1 [Compound 417, N-(1-(4-cyanophenyl)piperidin-4-yl)-6-(4-(4-fluorobenzyl)piperazine-1-carbonyl)nicotinamide]"
8,< 500 nM,"N#Cc1ccc(OC2CCN(C(=O)c3ccc(C(=O)NC4CCN(c5ccc(C#N)cc5)CC4)cn3)CC2)cc1 [Compound 418, 6-(4-(4-cyanophenoxy)piperidine-1-carbonyl)-N-(1-(4-cyanophenyl)piperidin-4-yl)nicotinamide]"
9,< 500 nM,"N#Cc1ccc(CN2CCC(NC(=O)c3ccc(C(=O)N4CCC(C(=O)c5cccs5)CC4)cn3)CC2)cc1 [Compound 419, N-(1-(4-cyanobenzyl)piperidin-4-yl)-5-(4-(thiophene-2-carbonyl)piperidine-1-carbonyl)picolinamide]"
10,< 500 nM,"COc1ccc(N2CCC(NC(=O)c3ccc(C(=O)N4CCC(Oc5ccc(C#N)cc5)CC4)nc3)CC2)cc1 [Compound 423, 6-(4-(4-cyanophenoxy)piperidine-1-carbonyl)-N-(1-(4-methoxyphenyl)piperidin-4-yl)nicotinamide]"
11,< 500 nM,"COc1ccc(C(=O)C2CCN(C(=O)c3ccc(C(=O)NC4CCN(Cc5cccc(OC(F)(F)F)c5)CC4)cn3)CC2)cc1 [Compound 424, 6-(4-(4-methoxybenzoyl)piperidine-1-carbonyl)-N-(1-(3-(trifluoromethoxy)benzyl)piperidin-4-yl)nicotinamide]"
12,< 500 nM,"COc1ccc(C(=O)C2CCN(C(=O)c3ccc(C(=O)NC4CCN(Cc5cccc(OC)c5)CC4)cn3)CC2)cc1 [Compound 425, 6-(4-(4-methoxybenzoyl)piperidine-1-carbonyl)-N-(1-(3-methoxybenzyl)piperidin-4-yl) nicotinamide]"
13,< 500 nM,"COc1ccc(C(=O)C2CCN(C(=O)c3ccc(C(=O)N[C@@H]4CCN(Cc5cc(C)on5)C[C@@H]4F)cn3)CC2)cc1 [Compound 426, N-((3S,4R)-3-fluoro-1-((5-methylisoxazol-3-yl)methyl)piperidin-4-yl)-6-(4-(4-methoxybenzoyl)piperidine-1-carbonyl)nicotinamide]"
14,< 500 nM,"COc1ccc(C(=O)C2CCN(C(=O)c3ccc(C(=O)NC4CCN(Cc5ccc(OC(F)(F)F)cc5)CC4)cn3)CC2)cc1 [Compound 430, 6-(4-(4-methoxybenzoyl)piperidine-1-carbonyl)-N-(1-(4-(trifluoromethoxy)benzyl)piperidin-4-yl)nicotinamide]"
15,< 500 nM,"O=C(Nc1ccc(Oc2ccc(F)cc2)nc1)c1ccc(C(=O)N2CCC(Oc3cccc(NC(=O)C4CC4)c3)CC2)nc1 [Compound 433, 6-(4-(3-(cyclopropanecarboxamido)phenoxy)piperidine-1-carbonyl)-N-(6-(4-fluorophenoxy)pyridin-3-yl)nicotinamide]"
16,< 500 nM,"N#Cc1ccc(O[C@H]2CC[C@@H](NC(=O)c3ccc(C(=O)N4CCC(Oc5cccc(NC(=O)C6CC6)c5)CC4)nc3)CC2)cc1 [Compound 434, N-((cis)-4-(4-cyanophenoxy)cyclohexyl)-6-(4-(3-(cyclopropanecarboxamido)phenoxy)piperidine-1-carbonyl)nicotinamide]"
17,< 500 nM,"COc1ccc(CN2CCC(NC(=O)c3ccc(C(=O)N4CCC(Oc5cccc(NC(=O)C6CC6)c5)CC4)nc3)CC2)cc1 [Compound 435, 6-(4-(3-(cyclopropanecarboxamido)phenoxy)piperidine-1-carbonyl)-N-(1-(4-methoxybenzyl)piperidin-4-yl)nicotinamide]"
18,< 500 nM,"N#Cc1ccc(CN2CCC(NC(=O)c3ccc(C(=O)N4CCC(Oc5ccc(SC(F)(F)F)cc5)CC4)nn3)CC2)cc1 [Compound 436, N-(1-(4-cyanobenzyl)piperidin-4-yl)-6-(4-(4-(trifluoromethylthio)phenoxy)piperidine-1-carbonyl)pyridazine-3-carboxamide]"
